Data published in patent US6451293B1, “Combination of erythrulose and a reducing sugar with self-tanning properties” (Pentapharm AG, priority 1997, dated 2002).

What was measured:
skin [1] = experiment: time for the skin tan/colour to develop; details: in vivo
Description: The hitherto most frequently used active substance is dihydroxyacetone (hereinafter referred to as “DHA”). The fast tanning active substance (4-7 hours) does, however, have some disadvantages. The skin colour achieved is yellowish-brown, which produces an unnatural colour, particularly in pale skin. In addition, the tan is irregular and soon pales again because the top-most layers of the epidermis are quickly shed. […] This may be attributed to the fact that erythrulose dyes the skin more slowly (the colour takes about 20-24 hours to develop) and less intensively, but instead also penetrates lower layers of the Stratum corneum where it is also able to react with the free amino groups. This not only results in more even tanning, but also in a retarded effect, with the result that the tan lasts longer. Moreover the skin becomes less dried out than, for example, with DHA alone. The synergistic effect, that will subsequently also be shown with reference to examples, of the active substance combination erythrulose/other reducing sugars, such as for example DHA, was not predictable.

skin [2] = details: known active substance, background statement; cited from earlier work

Q: For `O=C(CO)C(O)CO` (racemic) [erythrulose, 1,3,4-trihydroxy-butan-2-one], which “time the colour takes to develop” value (skin [1]) is on record?
A: The value was 20 to 24 h.

Q: Which time of tanning (skin [2]) does the source give for `O=C(CO)CO` [DHA, 1,3-dihydroxy-propan-2-one] here?
A: Its time of tanning is 4 to 7 h.
